# Test results taken from patent US12084434B2 (Scorpion Therapeutics, Inc., priority 2021, dated 2024).
# pIC50: −log10 of the molar value.
# Tested on: T47D pAKT (S473), PI3Kα H1047R mutation present
# Assay: HTRF pAKT-T47D;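 also: assay medium was RPMI with 10% FBS and 0.2 units/ml bovine insulin, without phenol red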
# Details: Homo sapiens, T47D, 1 h, read-out: T47D pAKT IC50 (nM), T47D.1 cells, pAKT (S473) HTRF, 1 hour
# Method: Homogenous Time-Resolved Fluorescence (HTRF)—pAKT-T47D
# Compounds were assayed using homogeneous time-resolved fluorescence (HTRF).
# Gibco RPMI 1640 Medium, no phenol red; Gibco RPMI 1640 Medium; Gibco Trypsin-EDTA (0.5%), no phenol red; Gibco DPBS; Trypan blue solution 0.4% (Corning); Avantor Seradigm Premium Grade Fetal Bovine Serum (FBS); Greiner 784080-384 well TC treated white plates; pAKT (Ser473) HTRF; Gibco Insulin, human recombinant, zinc solution; Gibco Recovery Cell Culture Freezing Medium; Countess II FL Automated Cell Counter (ThermoFisher); Countess II Slides (ThermoFisher); Microscope; and PHERAstar FSX Microplate Reader (BMG LABTECH, Inc.).
# The scinamic cell line ID was T47D.1, the HTRF detection was pAKT (S473), a PI3Kα H1047R mutation was present, the seeding density was 5000, the timepoint was 1 hour, and the medium used was RPMI+10% FBS (no phenol red)+0.2 units/ml bovine insulin.
# • The cell density was not permitted to reach 100% confluence. The cells were split 1:5 when they reached ˜80% confluence. • Cells were split twice a week (Mon and Fri). • Cells over passage 18 were not used (˜2 months of maintenance). • Antibiotics were not used for tissue culture maintenance or assays. […] Protocol Day1
# The procedure was as follows: • 1. Prepared ARP: • a. Stamped 12.5 nL from 10 μmM source plate to destination plate using Echo. Sealed plate immediately and froze at −20° C. if it was not used on the same day. • b. If a frozen ARP was used, the plate was thawed and spun at 1000 rpm×1 min. • 2. Preparation of cells (adherent): • a. Aspirated media from cells. Washed cells with sterile 1XPBS. Aspirated PBS and added appropriate amount of Trypsin. • b. Once cells were fully trypsinized, added appropriate media to resuspend cells. Transferred cells to a 15 mL or 50 mL conical tube. • c. Counted cells on the Countess II Cell Counter. • 3. Plating of cells: • a. Prepared cells at appropriate plating density. Dispensed 12 μL of diluted cells per well of a Greiner 784080-384 well TC treated white plate using a Multidrop Combi to columns 1-23. Added 12 uL of appropriate phenol free media only to column 24. • b. Placed plates in 37° C. tissue culture incubator for appropriate treatment time (refer to “Assay” table). • 4. Prepared HTRF Lysis Buffer • a. Calculate the amount of HTRF lysis buffer master mix needed to perform the desired experiments plus any extra dead volume required for dispensing (4 μL required per well). […] Add 4 uL Lysis buffer master mix to all wells with sample or DMSO. Centrifuge the plates for 1 minute at 1000 rpm. • c. Incubate at room temperature for 30 minutes. • 5. Prepared HTRF Antibody • a.
row,IC50,Structure (SMILES)
1,1000 to 5000 nM,"Cc1c(C(NC(=O)Nc2cnc(N3CC(S(C)(=O)=O)C3)nc2)C(F)(F)F)oc2c(F)cc(F)cc12 (racemic) [Compound 185, 1-(1-(5,7-difluoro-3-methylbenzofuran-2-yl)-2,2,2-trifluoroethyl)-3-(2-(3-(methylsulfonyl)azetidin-1-yl)pyrimidin-5-yl)urea]"
2,< 1000 nM,"Cc1c([C@@H](NC(=O)Nc2cnc(N3C[C@@H](O)[C@@H]3C)nc2)C(C)C)oc2ccc(F)cc12 (relative stereo) [Compound 148, 3-[(1S)-1-(5-fluoro-3-methyl-1-benzofuran-2-yl)-2-methylpropyl]-1-{2-[(2R*,3R**)-3-hydroxy-2-methylazetidin-1-yl]pyrimidin-5-yl}urea]"
3,< 1000 nM,"Cc1c([C@@H](NC(=O)Nc2cnc(N3C[C@H](O)[C@H]3C)nc2)C(C)C)oc2ccc(F)cc12 (relative stereo) [Compound 149, 3-[(1S)-1-(5-fluoro-3-methyl-1-benzofuran-2-yl)-2-methylpropyl]-1-{2-[(2R*,3R**)-3-hydroxy-2-methylazetidin-1-yl]pyrimidin-5-yl}urea]"
4,< 1000 nM,"Cc1c([C@@H](NC(=O)Nc2cnc(N3CC(O)C3)nc2)C(F)(F)F)oc2c(F)cc(F)cc12 (single isomer, unassigned) [Compound 91]"
5,< 1000 nM,"Cc1c([C@H](NC(=O)Nc2cnc(N3CC(C)(O)C3)nc2)C(F)(F)F)oc2c(F)cc(F)cc12 (single isomer, unassigned) [Compound 93]"
6,< 1000 nM,"CC[C@H](NC(=O)Nc1cnc(N)nc1)c1oc2ccc(F)cc2c1C (single isomer, unassigned) [Compound 100]"
7,1000 to 5000 nM,"Cc1c(C(NC(=O)Nc2cnc(N3CCC(O)CC3)nc2)C(F)(F)F)oc2c(F)cc(F)cc12 (single isomer, unassigned) [Compound 191]"

# Same assay, conditions: read-out: T47D pAKT IC50; T47D.1 cells, pAKT (S473) HTRF, 1 hour
row,Structure (SMILES),pIC50
1,"Cc1c(C(NC(=O)Nc2ccc(N3CC(O)C3)nc2)C(F)(F)F)oc2c(F)cc(F)cc12 (racemic) [Compound 179, 3-[1-(5,7-difluoro-3-methyl-1-benzofuran-2-yl)-2,2,2-trifluoroethyl]-1-[6-(3-hydroxyazetidin-1-yl)pyridin-3-yl]urea]",< 5.30
2,"Cc1c(C(NC(=O)Nc2cnc(N[C@H](C)CO)nc2)C(F)(F)F)oc2c(F)cc(F)cc12 (single isomer, unassigned) [Compound 187]",< 5.30
3,"Cc1c(C(NC(=O)Nc2cnc(N3CCNC(=O)C3)nc2)C(F)(F)F)oc2c(F)cc(F)cc12 (single isomer, unassigned) [Compound 190, 1-(1-(5,7-difluoro-3-methylbenzofuran-2-yl)-2,2,2-trifluoroethyl)-3-(2-(3-oxopiperazin-1-yl)pyrimidin-5-yl)urea]",< 5.30
4,"Cc1c(C(NC(=O)Nc2cnc(N[C@@H](C)CO)nc2)C(F)(F)F)oc2c(F)cc(F)cc12 (single isomer, unassigned) [Compound 195]",< 5.30
5,"Cc1c(C(NC(=O)Nc2cnc(N3CC(C(=O)O)C3)nc2)C(F)(F)F)oc2c(F)cc(F)cc12 (single isomer, unassigned) [Compound 198, 1-[5-({[1-(5,7-difluoro-3-methyl-1-benzofuran-2-yl)-2,2,2-trifluoroethyl]carbamoyl}amino)pyrimidin-2-yl]azetidine-3-carboxylic acid]",< 5.30
6,"Cc1c(C(NC(=O)Nc2cnc(N3CC(O)C3)nc2)C(F)(F)F)oc2c(Cl)cc(F)cc12 (single isomer, unassigned) [Compound 199, 3-[1-(7-chloro-5-fluoro-3-methyl-1-benzofuran-2-yl)-2,2,2-trifluoroethyl]-1-[2-(3-hydroxyazetidin-1-yl)pyrimidin-5-yl] urea]",< 5.30
7,"Cc1c(C(NC(=O)Nc2cnc(N3CC(C)(O)C3)nc2)C(F)(F)F)oc2c(Cl)cc(F)cc12 (single isomer, unassigned) [Compound 201, 1-(1-(7-chloro-5-fluoro-3-methylbenzofuran-2-yl)-2,2,2-trifluoroethyl)-3-(2-(3-hydroxy-3-methylazetidin-1-yl)pyrimidin-5-yl)urea]",< 5.30

# The next lines start with the values.
row,pIC50,Structure (SMILES)
1,> 6.00,"CCc1c(C(NC(=O)Nc2cnc(N)nc2)C(F)(F)F)oc2ccc(F)cc12 (racemic) [Compound 132, 1-(2-aminopyrimidin-5-yl)-3-[1-(3-ethyl-5-fluoro-1-benzofuran-2-yl)-2,2,2-trifluoroethyl]urea]"
2,< 5.30,"CCc1c(C(NC(=O)Nc2cnc(N)nc2)C(F)(F)F)oc2ccc(F)cc12 (racemic) [Compound 133, 1-(2-aminopyrimidin-5-yl)-3-[1-(3-ethyl-5-fluoro-1-benzofuran-2-yl)-2,2,2-trifluoroethyl]urea]"
3,< 5.30,"Cc1c(C(NC(=O)Nc2cnc(N3CC(O)C3)nc2)C(F)(F)F)oc2ccc(Cl)cc12 (racemic) [Compound 153, 3-[1-(5-chloro-3-methyl-1-benzofuran-2-yl)-2,2,2-trifluoroethyl]-1-[2-(3-hydroxyazetidin-1-yl)pyrimidin-5-yl]urea]"
4,> 6.00,"Cc1c(C(NC(=O)Nc2cnc(N3CC(O)C3)nc2)C(F)(F)F)oc2ccc(Cl)cc12 (racemic) [Compound 154, 3-[1-(5-chloro-3-methyl-1-benzofuran-2-yl)-2,2,2-trifluoroethyl]-1-[2-(3-hydroxyazetidin-1-yl)pyrimidin-5-yl]urea]"
5,< 5.30,"Cc1c(C(NC(=O)Nc2cnc(N)nc2)C(F)(F)F)oc2c(F)cc(Cl)cc12 (racemic) [Compound 155, 1-(2-aminopyrimidin-5-yl)-3-[1-(5-chloro-7-fluoro-3-methyl-1-benzofuran-2-yl)-2,2,2-trifluoroethyl]urea]"
6,> 6.00,"Cc1c(C(NC(=O)Nc2cnc(N)nc2)C(F)(F)F)oc2c(F)cc(Cl)cc12 (racemic) [Compound 156, 1-(2-aminopyrimidin-5-yl)-3-[1-(5-chloro-7-fluoro-3-methyl-1-benzofuran-2-yl)-2,2,2-trifluoroethyl]urea]"
7,> 6.00,"Cc1c(C(NC(=O)Nc2cnc(N3CC(O)C3)nc2)C(F)(F)F)oc2c(F)cc(Cl)cc12 (racemic) [Compound 157, 3-[1-(5-chloro-7-fluoro-3-methyl-1-benzofuran-2-yl)-2,2,2-trifluoroethyl]-1-[2-(3-hydroxyazetidin-1-yl)pyrimidin-5-yl]urea]"
8,< 5.30,"Cc1c(C(NC(=O)Nc2cnc(N3CC(O)C3)nc2)C(F)(F)F)oc2c(F)cc(Cl)cc12 (racemic) [Compound 158, 3-[1-(5-chloro-7-fluoro-3-methyl-1-benzofuran-2-yl)-2,2,2-trifluoroethyl]-1-[2-(3-hydroxyazetidin-1-yl)pyrimidin-5-yl]urea]"
9,< 5.30,"Cc1c(C(NC(=O)Nc2cnc(N3CC4(COC4)C3)nc2)C(F)(F)F)oc2c(F)cc(F)cc12 (racemic) [Compound 171, 1-(2-(2-oxa-6-azaspiro[3.3]heptan-6-yl)pyrimidin-5-yl)-3-(1-(5,7-difluoro-3-methylbenzofuran-2-yl)-2,2,2-trifluoroethyl)urea]"
10,> 6.00,"Cc1c(C(NC(=O)Nc2cnc(N3CC4(COC4)C3)nc2)C(F)(F)F)oc2c(F)cc(F)cc12 (racemic) [Compound 172, 1-(2-(2-oxa-6-azaspiro[3.3]heptan-6-yl)pyrimidin-5-yl)-3-(1-(5,7-difluoro-3-methylbenzofuran-2-yl)-2,2,2-trifluoroethyl)urea]"
11,< 5.30,"Cc1c(C(NC(=O)Nc2cnc(N)nc2)C(F)(F)F)oc2c(Cl)cc(F)cc12 (racemic) [Compound 177, 1-(2-aminopyrimidin-5-yl)-3-[1-(7-chloro-5-fluoro-3-methyl-1-benzofuran-2-yl)-2,2,2-trifluoroethyl] urea]"
12,> 6.00,"Cc1c(C(NC(=O)Nc2cnc(N)nc2)C(F)(F)F)oc2c(Cl)cc(F)cc12 (racemic) [Compound 178, 1-(2-aminopyrimidin-5-yl)-3-[1-(7-chloro-5-fluoro-3-methyl-1-benzofuran-2-yl)-2,2,2-trifluoroethyl] urea]"
13,> 6.00,"Cc1c(C(NC(=O)Nc2ccc(N3CC(O)C3)nc2)C(F)(F)F)oc2c(F)cc(F)cc12 (racemic) [Compound 180, 3-[1-(5,7-difluoro-3-methyl-1-benzofuran-2-yl)-2,2,2-trifluoroethyl]-1-[6-(3-hydroxyazetidin-1-yl)pyridin-3-yl]urea]"
14,> 6.00,"Cc1c(C(NC(=O)Nc2cnc(N3CC(S(C)(=O)=O)C3)nc2)C(F)(F)F)oc2c(F)cc(F)cc12 (racemic) [Compound 186, 1-(1-(5,7-difluoro-3-methylbenzofuran-2-yl)-2,2,2-trifluoroethyl)-3-(2-(3-(methylsulfonyl)azetidin-1-yl)pyrimidin-5-yl)urea]"
15,> 6.00,"Cc1c(C(NC(=O)Nc2cnc(N[C@H](C)CO)nc2)C(F)(F)F)oc2c(F)cc(F)cc12 (single isomer, unassigned) [Compound 188]"
16,> 6.00,"Cc1c(C(NC(=O)Nc2cnc(N3CCNC(=O)C3)nc2)C(F)(F)F)oc2c(F)cc(F)cc12 (single isomer, unassigned) [Compound 189, 1-(1-(5,7-difluoro-3-methylbenzofuran-2-yl)-2,2,2-trifluoroethyl)-3-(2-(3-oxopiperazin-1-yl)pyrimidin-5-yl)urea]"
17,> 6.00,"Cc1c(C(NC(=O)Nc2cnc(N3CCC(O)CC3)nc2)C(F)(F)F)oc2c(F)cc(F)cc12 (single isomer, unassigned) [Compound 192]"
18,> 6.00,"Cc1c(C(NC(=O)Nc2cnc(N[C@@H](C)CO)nc2)C(F)(F)F)oc2c(F)cc(F)cc12 (single isomer, unassigned) [Compound 196]"
19,> 6.00,"Cc1c(C(NC(=O)Nc2cnc(N3CC(C(=O)O)C3)nc2)C(F)(F)F)oc2c(F)cc(F)cc12 (single isomer, unassigned) [Compound 197, 1-[5-({[1-(5,7-difluoro-3-methyl-1-benzofuran-2-yl)-2,2,2-trifluoroethyl]carbamoyl}amino)pyrimidin-2-yl]azetidine-3-carboxylic acid]"
20,> 6.00,"Cc1c(C(NC(=O)Nc2cnc(N3CC(O)C3)nc2)C(F)(F)F)oc2c(Cl)cc(F)cc12 (single isomer, unassigned) [Compound 200, 3-[1-(7-chloro-5-fluoro-3-methyl-1-benzofuran-2-yl)-2,2,2-trifluoroethyl]-1-[2-(3-hydroxyazetidin-1-yl)pyrimidin-5-yl] urea]"
